{
  "source": "patent US20240287138A1",
  "about": "“CYCLIC PEPTIDES FOR INHIBITING TNF RECEPTOR 1 ACTIVITY” (Merck Sharp & Dohme LLC, priority 2023, published 2024)",
  "key": {"[1]": {"target": "T1, human TNFR1 extracellular domain (ECD) protein (Homo sapiens, UniProt P19438)", "T1 construct": "HRV 3C protease cleavage site (C); 6His (C, cleaved yes); made in house; host or cells: Sf21 insect cells (baculovirus), secreted", "T1 sequence (P19438 30-211)": "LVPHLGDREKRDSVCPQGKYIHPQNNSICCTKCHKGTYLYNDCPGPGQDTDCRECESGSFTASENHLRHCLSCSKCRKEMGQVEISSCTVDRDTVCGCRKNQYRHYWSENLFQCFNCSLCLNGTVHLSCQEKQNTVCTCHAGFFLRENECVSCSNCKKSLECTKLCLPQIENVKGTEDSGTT", "assay": "SPR binding affinity to captured human TNFR1 ECD", "method_in_brief": "(§1)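 Biotinylated avi-tagged human TNFR1 or TNFR2 ECD, expressed in Sf21 insect cells, captured on streptavidin SPR chip; peptide analytes run in 10 mM HEPES pH 7.4, 150 mM NaCl, 3 mM EDTA, 0.05% P20, 2% DMSO. kon and koff measured, affinity KA calculated.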"}, "[2]": {"target": "T2, human soluble TNFR1 (sTNFR1) (Homo sapiens, UniProt P19438)", "T2 construct": "made in house; host or cells: Sf21 (baculovirus)", "T2 sequence (P19438 with tags, fused parts or gaps)": "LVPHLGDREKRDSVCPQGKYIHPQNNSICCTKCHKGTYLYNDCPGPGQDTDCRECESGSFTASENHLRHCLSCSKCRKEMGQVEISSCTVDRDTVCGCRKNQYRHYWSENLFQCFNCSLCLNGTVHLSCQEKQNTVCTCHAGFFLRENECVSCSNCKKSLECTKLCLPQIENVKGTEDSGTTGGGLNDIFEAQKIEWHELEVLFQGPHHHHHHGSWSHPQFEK", "assay": "Human sTNFR1-peptide displacement assay (LanthaScreen Eu TR-FRET binding assay)", "method_in_brief": "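Readout is the 665/615 nm TR-FRET ratio (Eu anti-His donor, streptavidin-Alexa647 acceptor), normalized to DMSO and saturating displacer, fit by Morrison-based five-parameter logistic for Kd^app. His-tagged sTNFR1 (1-211) prebound to 100 nM biotinylated peptide SEQ ID NO.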"}, "human TNFR2 ECD protein": {"target": "T3, human TNFR2 ECD protein (Homo sapiens, UniProt P20333)", "T3 construct": "HRV 3C protease cleavage site (C); 6His (C, cleaved yes); made in house; host or cells: Sf21 insect cells (baculovirus), secreted", "T3 sequence (P20333 23-257)": "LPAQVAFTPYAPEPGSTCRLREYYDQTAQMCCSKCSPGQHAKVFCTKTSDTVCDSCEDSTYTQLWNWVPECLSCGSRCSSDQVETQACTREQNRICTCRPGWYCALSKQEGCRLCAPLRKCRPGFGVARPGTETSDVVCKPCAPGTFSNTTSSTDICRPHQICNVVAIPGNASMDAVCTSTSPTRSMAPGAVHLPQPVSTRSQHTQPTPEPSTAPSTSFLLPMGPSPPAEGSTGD", "assay": "SPR off-target binding (selectivity) to human TNFR2 ECD", "method_in_brief": "as §1"}},
  "note": "Numbered stars: 1 amine (or outer) side, 2 acyl side, 3 side chain; on linkers, the order of the positions; unused ones are H or OH. Bridge positions count the residues as written; N and C are the ends. Square brackets hold non-standard residues; d marks the D form. Peptide text beside a SMILES is read from it. * marks the point of attachment. Trp(βS-Me,7-OMe) = COc1cccc2c([C@H](C)[C@H](N)C(=O)O)c[nH]c12; X21 = COc1cccc2c([C@H](C)[C@H](N[*:1])C(=O)[*:2])c(C)[nH]c12; Trp(4-Cl) = N[C@@H](Cc1c[nH]c2cccc(Cl)c12)C(=O)O; Trp(7-CN) = N#Cc1cccc2c(C[C@H](N)C(=O)O)c[nH]c12; Trp(7-Cl) = N[C@@H](Cc1c[nH]c2c(Cl)cccc12)C(=O)O; Phe(4-CONH2) = NC(=O)c1ccc(C[C@H](N)C(=O)O)cc1; Phe(4-COOH) = N[C@@H](Cc1ccc(C(=O)O)cc1)C(=O)O; Trp(7-aza) = N[C@@H](Cc1c[nH]c2ncccc12)C(=O)O; X3 = C[C@H](c1ccncc1)[C@H](N[*:1])C(=O)[*:2]; Pip(5R-OH) = O=C(O)[C@@H]1CC[C@@H](O)CN1; X1 = O=C([C@@H]1CC[C@H](N[*:1])C1)[*:2]; Pip(4-aza) = O=C(O)[C@@H]1CNCCN1; 4Pal = N[C@@H](Cc1ccncc1)C(=O)O; NMeE = CN[C@@H](CCC(=O)O)C(=O)O; dHyp = O=C(O)[C@H]1C[C@H](O)CN1; αMeS = C[C@](N)(CO)C(=O)O; Nle = CCCC[C@H](N)C(=O)O; Sar = CNCC(=O)O; X22 = C1CC1C*",
  "data": [
    {"smiles": "CCCC[C@@H]1NC(=O)CSC[C@@H](C(N)=O)NC(=O)[C@H]([C@@H](C)c2c[nH]c3c(OC)cccc23)NC(=O)CN(C)C(=O)[C@H](Cc2ccc(O)cc2)NC(=O)[C@H](Cc2ccc(C(=O)O)cc2)NC(=O)[C@](C)(CO)NC(=O)[C@H](Cc2c[nH]c3c(Cl)cccc23)NC(=O)[C@H](Cc2ccncc2)NC(=O)[C@H](CC(N)=O)NC(=O)[C@H](CCC(=O)O)N(C)C(=O)[C@H](Cc2c[nH]c3ncccc23)NC(=O)[C@H](CO)NC(=O)[C@H]([C@H](C)c2ccncc2)NC1=O", "note": "[SEQ ID NO. 143] ({CH2CO}-[Nle][X3]S[Trp(7-aza)][NMeE]N[4Pal][Trp(7-Cl)][αMeS][Phe(4-COOH)]Y[Sar][Trp(βS-Me,7-OMe)]C-NH2; thioether N-14)", "values": [
      {"measurement": "Kd", "setting": "[1]", "result": 0.05, "unit": "nM"},
      {"measurement": "IC50", "setting": "[2]", "result": 0.4, "unit": "nM"},
      {"measurement": "Kd", "setting": "[2]", "result": 0.21, "unit": "nM"},
      {"measurement": "Kd", "setting": "human TNFR2 ECD protein", "result": "> 1000", "unit": "nM"}
    ]},
    {"smiles": "CCCC[C@@H]1NC(=O)[C@@H]2CC[C@@H](C2)NC(=O)[C@H]([C@@H](C)c2c[nH]c3c(OC)cccc23)NC(=O)CN(C)C(=O)[C@H](Cc2ccc(O)cc2)NC(=O)[C@H](Cc2ccc(C(=O)O)cc2)NC(=O)[C@](C)(CO)NC(=O)[C@H](Cc2c[nH]c3c(Cl)cccc23)NC(=O)[C@H](Cc2ccc(C(=O)O)cc2)NC(=O)[C@H](CC(N)=O)NC(=O)[C@H](CCC(=O)O)N(C)C(=O)[C@H](Cc2c[nH]c3ccccc23)NC(=O)[C@@H]2CNCCN2C(=O)[C@H](Cc2ccncc2)NC1=O", "note": "[SEQ ID NO. 288] (cyclo([4Pal][Pip(4-aza)]W[NMeE]N[Phe(4-COOH)][Trp(7-Cl)][αMeS][Phe(4-COOH)]Y[Sar][Trp(βS-Me,7-OMe)][X1][Nle]))", "values": [
      {"measurement": "Kd", "setting": "[1]", "result": 0.1, "unit": "nM"},
      {"measurement": "IC50", "setting": "[2]", "result": 0.2, "unit": "nM"},
      {"measurement": "Kd", "setting": "[2]", "result": 0.11, "unit": "nM"},
      {"measurement": "Kd", "setting": "human TNFR2 ECD protein", "result": "> 1000", "unit": "nM"}
    ]},
    {"smiles": "CCCC[C@@H]1NC(=O)[C@@H]2CC[C@@H](C2)NC(=O)[C@H]([C@@H](C)c2c(C)[nH]c3c(OC)cccc23)NC(=O)CN(C)C(=O)[C@H](Cc2ccc(C(=O)O)cc2)NC(=O)[C@H](Cc2ccc(C(N)=O)cc2)NC(=O)[C@](C)(CO)NC(=O)[C@H](Cc2c[nH]c3c(Cl)cccc23)NC(=O)[C@H](Cc2ccc(C(=O)O)cc2)NC(=O)[C@H](CC(N)=O)NC(=O)[C@H]2C[C@H](O)CN2C(=O)[C@H](Cc2c[nH]c3ccccc23)NC(=O)[C@@H]2CC[C@@H](O)CN2C(=O)[C@H](Cc2ccncc2)NC1=O", "note": "[SEQ ID NO. 106] (cyclo([4Pal][Pip(5R-OH)]W[dHyp]N[Phe(4-COOH)][Trp(7-Cl)][αMeS][Phe(4-CONH2)][Phe(4-COOH)][Sar][X21][X1][Nle]))", "values": [
      {"measurement": "Kd", "setting": "[1]", "result": 0.04, "unit": "nM"},
      {"measurement": "Kd", "setting": "[2]", "result": 0.05, "unit": "nM"},
      {"measurement": "Kd", "setting": "human TNFR2 ECD protein", "result": "> 1000", "unit": "nM"}
    ]},
    {"smiles": "COc1cccc2c([C@H](C)[C@@H]3NC(=O)CN(C)C(=O)[C@H](Cc4ccc(C(=O)O)cc4)NC(=O)[C@H](Cc4ccc(C(N)=O)cc4)NC(=O)[C@](C)(CO)NC(=O)[C@H](Cc4c[nH]c5c(C#N)cccc45)NC(=O)[C@H](Cc4ccc(C(=O)O)cc4)NC(=O)[C@H](CC(N)=O)NC(=O)[C@H]4C[C@H](O)CN4C(=O)[C@H](Cc4c[nH]c5ncccc45)NC(=O)[C@@H]4CC[C@@H](O)CN4C(=O)[C@H](Cc4ccncc4)NC(=O)[C@H](COCC4CC4)NC(=O)[C@@H]4CC[C@@H](C4)NC3=O)c[nH]c12", "note": "[SEQ ID NO. 149] (cyclo([4Pal][Pip(5R-OH)][Trp(7-aza)][dHyp]N[Phe(4-COOH)][Trp(7-CN)][αMeS][Phe(4-CONH2)][Phe(4-COOH)][Sar][Trp(βS-Me,7-OMe)][X1]S(X22)))", "values": [
      {"measurement": "Kd", "setting": "[1]", "result": 0.18, "unit": "nM"},
      {"measurement": "Kd", "setting": "[2]", "result": 0.21, "unit": "nM"},
      {"measurement": "Kd", "setting": "human TNFR2 ECD protein", "result": "> 1000", "unit": "nM"}
    ]},
    {"smiles": "CN1CC(=O)N[C@@H](Cc2c[nH]c3cccc(Cl)c23)C(=O)N[C@H](C(N)=O)CSCC(=O)N[C@@H](CCC(N)=O)C(=O)N[C@@H](Cc2ccncc2)C(=O)N[C@@H](CO)C(=O)N[C@@H](Cc2c[nH]c3ncccc23)C(=O)N(C)[C@@H](CCC(=O)O)C(=O)N[C@@H](CC(N)=O)C(=O)N[C@@H](Cc2ccncc2)C(=O)N[C@@H](Cc2c[nH]c3c(Cl)cccc23)C(=O)N[C@@](C)(CO)C(=O)N[C@@H](Cc2ccc(C(=O)O)cc2)C(=O)N[C@@H](Cc2ccc(O)cc2)C1=O", "note": "[SEQ ID NO. 239] ({CH2CO}-Q[4Pal]S[Trp(7-aza)][NMeE]N[4Pal][Trp(7-Cl)][αMeS][Phe(4-COOH)]Y[Sar][Trp(4-Cl)]C-NH2; thioether N-14)", "values": [
      {"measurement": "Kd", "setting": "[1]", "result": 0.3, "unit": "nM"},
      {"measurement": "IC50", "setting": "[2]", "result": 0.52, "unit": "nM"},
      {"measurement": "Kd", "setting": "[2]", "result": 0.61, "unit": "nM"},
      {"measurement": "Kd", "setting": "human TNFR2 ECD protein", "result": "> 1000", "unit": "nM"}
    ]}
  ]
}
